Like-named read-outs stand apart in the source and are kept apart here.
Experiments:
Prolyl hydroxylase 2 = Prolyl hydroxylase 2 (Homo sapiens (Human), UniProt Q9GZT9); test: Prolyl hydroxylase 2 inhibition, fluorescence polarization method; assay type: biochemical
VEGF = VEGF expression at the cellular level (VEGF kit); assay type: cell-based; conditions: Hep3B human hepatoma cell, 24 h after administration
Method: (§1) The test of the activity of some compounds of the present invention on VEGF at the cellular level and EPO at the cellular level is shown as follows. The method is in accordance with Bioorganic & Medicinal Chemistry Letters 23 (2013) 5953-5957, and the test was carried out by using VEGF and EPO kit respectively 24 h after administration.
(§2) Hep3B Cell: Human Hepatoma Cell

EPO = EPO expression at the cellular level (EPO kit); assay type: cell-based; conditions: Hep3B human hepatoma cell, 24 h after administration
Method: as §1, §2

[1] = fluorescence polarization, read 1 h after adding the drugs, read-out: Prolyl hydroxylase 2 (IC50 nM)

Chain of Prolyl hydroxylase 2 (Q9GZT9 whole entry): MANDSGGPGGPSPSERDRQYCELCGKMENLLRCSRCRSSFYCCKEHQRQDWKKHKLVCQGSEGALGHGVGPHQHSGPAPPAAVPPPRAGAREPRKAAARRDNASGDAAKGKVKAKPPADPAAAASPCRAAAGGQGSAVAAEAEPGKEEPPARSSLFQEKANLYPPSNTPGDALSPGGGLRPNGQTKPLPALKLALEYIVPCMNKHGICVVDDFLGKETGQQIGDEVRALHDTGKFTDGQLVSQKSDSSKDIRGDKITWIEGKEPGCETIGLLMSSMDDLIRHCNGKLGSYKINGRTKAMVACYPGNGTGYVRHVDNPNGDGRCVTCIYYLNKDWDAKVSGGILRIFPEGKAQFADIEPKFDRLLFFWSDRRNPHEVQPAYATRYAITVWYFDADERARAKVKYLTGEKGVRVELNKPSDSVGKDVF

Compound | IC50 (Prolyl hydroxylase 2; [1]) [nM] | Whether it can increase the expression of VEGF in cells (VEGF) | Whether it can increase the expression of EPO in cells (EPO) | IC50 (Prolyl hydroxylase 2; Table 2 comparison, same test method, same batch, read-out: Prolyl hydroxylase 2 (IC50 nM), example compounds of the present invention) [nM]
CC(C)(C)C#Cc1cnc(C(=O)NCC(=O)O)c(O)c1 [Example 3, 2-(3-Hydroxy-5-tert-butylethynyl)picolinamido acetic acid] | 1220 ± 56 | Yes | Yes | –
O=C(O)CNC(=O)c1ncc(C#CC2CC2)cc1O [Example 4, 2-(3-Hydroxy-5-cyclopropylethynyl)picolinamido acetic acid] | 834.9 ± 3.2 | Yes | Yes | –
O=C(O)CNC(=O)c1ncc(C#Cc2ccccc2)cc1O [Example 5, 2-(3-Hydroxy-5-phenylethynyl)picolinamido acetic acid] | 820 ± 10.9 | Yes | Yes | –
COC(=O)CNC(=O)c1ncc(C#Cc2ccccc2)cc1O [Example 6, Methyl 2-(3-hydroxy-5-phenylethynyl)picolinamido acetate] | – | Yes | Yes | –
Cc1ccc(C#Cc2cc(O)c(C(=O)NCC(=O)O)nc2C)cc1 [Example 7, 2-(3-Hydroxy-5-p-methylphenylethynyl-6-methyl)picolinamido acetic acid] | – | – | Yes | –
COc1ccc(C#Cc2cc(O)c(C(=O)NCC(=O)O)nc2Cl)cc1 [Example 8, 2-(3-Hydroxy-5-p-methoxyphenylethynyl-6-chloro)picolinamido acetic acid] | – | Yes | Yes | –
CC(NC(=O)c1ncc(C#Cc2ccc(C3CC3)cc2)cc1O)C(=O)O (centres unmarked) [Example 9, 2-(3-Hydroxy-5-p-cyclopropylphenylethynylpyridine)carboxamido propionic acid] | – | Yes | Yes | –
COc1ccc(C#Cc2cnc(C(=O)NCC(=O)O)c(O)c2)cc1 [Example 16, 2-(3-Hydroxy-5-p-methoxyphenylethynyl)picolinamido acetic acid] | – | – | Yes | –
COc1cccc(C#Cc2cnc(C(=O)NCC(=O)O)c(O)c2)c1 [Example 17, 2-(3-Hydroxy-5-m-methoxyphenylethynyl)picolinamido acetic acid] | – | Yes | Yes | –
O=C(O)CNC(=O)c1ncc(C#Cc2ccc(-c3ccccc3)cc2)cc1O [Example 18, 2-(3-Hydroxy-5-(biphenyl-4-ylethynyl))picolinamido acetic acid] | 8130 ± 40.5 | – | – | –
N#Cc1ccc(C#Cc2cnc(C(=O)NCC(=O)O)c(O)c2)cc1 [Example 19, 2-(3-Hydroxy-5-p-cyanophenylethynyl)picolinamido acetic acid] | – | Yes | Yes | –
N#Cc1ccccc1C#Cc1cnc(C(=O)NCC(=O)O)c(O)c1 [Example 20, 2-(3-Hydroxy-5-o-cyanophenylethynyl)picolinamido acetic acid] | – | Yes | Yes | –
CC(=O)Nc1ccc(C#Cc2cnc(C(=O)NCC(=O)O)c(O)c2)cc1 [Example 22, 2-(3-Hydroxy-5-p-acetamidophenylethynyl)picolinamido acetic acid] | – | Yes | Yes | –
CN(C)C(=O)c1ccc(C#Cc2cnc(C(=O)NCC(N)=O)c(O)c2)cc1 [Example 23, 2-(3-Hydroxy-5-p-dimethylcarbamoylphenylethynyl)picolinamidoacetamide] | – | Yes | Yes | –
CCCCC(=O)Nc1ccc(C#Cc2cnc(C(=O)NCC(=O)OCC3CC3)c(O)c2)cc1 [Example 24, Cyclopropylmethyl 2-(3-hydroxy-5-p-pentanaminophenylethynyl)picolinamidoacetate] | – | – | Yes | –
CCCCNC(=O)c1ccc(C#Cc2cnc(C(=O)NCC(=O)OC(C)C)c(O)c2)cc1 [Example 25, Isopropyl 2-(3-hydroxy-5-p-butylcarbamoylphenylethynyl)picolinamidoacetate] | – | Yes | – | –
NC(=O)CNC(=O)c1ncc(C#CCOc2ccc(Cl)cc2)cc1O [Example 28] | – | Yes | Yes | –
CCc1ccc(OCC#Cc2cnc(C(=O)NCC(=O)OC)c(O)c2)cc1 [Example 29, Methyl 2-(3-hydroxy-5-(3-p-ethylphenoxypropyn-1-yl))picolinamido acetate] | – | Yes | Yes | –

Compound | IC50 (Prolyl hydroxylase 2; [1]) [nM] | Whether it can increase the expression of VEGF in cells (VEGF) | Whether it can increase the expression of EPO in cells (EPO) | IC50 (Prolyl hydroxylase 2; Table 2 comparison, same test method, same batch, read-out: Prolyl hydroxylase 2 (IC50 nM), example compounds of the present invention) [nM]
CC(C)OC(=O)CNC(=O)c1ncc(C#CCOc2ccc(C#N)cc2)cc1O [Example 30, Isopropyl 2-(3-hydroxy-5-(3-p-cyanophenoxypropyn-1-yl))picolinamido acetate] | – | Yes | Yes | –
O=C(O)CNC(=O)c1ncc(C#CCOc2ccccc2)cc1O [Example 33, 2-(3-Hydroxy-5-(3-phenoxypropyn-1-yl))picolinamido acetic acid] | 169.5 ± 0.5 | Yes | Yes | 169.5 ± 0.5
Cc1ccccc1OCC#Cc1cnc(C(=O)NCC(=O)O)c(O)c1 [Example 35] | 70.4 ± 0.6 | Yes | Yes | –
CCc1ccc(OCC#Cc2cnc(C(=O)NCC(=O)O)c(O)c2)cc1 [Example 36] | 378 ± 33.3 | Yes | Yes | –
COc1ccc(OCC#Cc2cnc(C(=O)NCC(=O)O)c(O)c2)cc1 [Example 39, 2-(3-Hydroxy-5-(3-p-methoxyphenoxypropyn-1-yl))picolinamido acetic acid] | – | Yes | Yes | –
CC(C)(C)Oc1cccc(OCC#Cc2cnc(C(=O)NCC(=O)O)c(O)c2)c1 [Example 40, 2-(3-Hydroxy-5-(3-m-tert-butoxyphenoxypropyn-1-yl))picolinamido acetic acid] | – | Yes | Yes | –
O=C(O)CNC(=O)c1ncc(C#CCOc2cccc(OC3CC3)c2)cc1O [Example 41, 2-(3-Hydroxy-5-(3-m-cyclopropoxyphenoxypropyn-1-yl))picolinamido acetic acid] | – | Yes | Yes | –
O=C(O)CNC(=O)c1ncc(C#CCOc2ccc(C(F)(F)F)cc2)cc1O [Example 42, 2-(3-Hydroxy-5-(3-p-trifluoromethylphenoxypropyn-1-yl))picolinamido acetic acid] | 515 ± 6.1 | – | – | –
O=C(O)CNC(=O)c1ncc(C#CCOc2cccc(Br)c2)cc1O [Example 48, 2-(3-Hydroxy-5-(3-m-bromophenoxypropyn-1-yl))picolinamido acetic acid] | – | Yes | Yes | –
N#Cc1cccc(OCC#Cc2cnc(C(=O)NCC(=O)O)c(O)c2)c1 [Example 49, 2-(3-Hydroxy-5-(3-m-cyanophenoxypropyn-1-yl))picolinamido acetic acid] | – | Yes | Yes | –
NC(=O)c1ccc(OCC#Cc2cnc(C(=O)NCC(=O)O)c(O)c2)cc1 [Example 52, 2-(3-Hydroxy-5-(3-p-carbamoylphenoxypropyn-1-yl))picolinamido acetic acid] | – | – | Yes | –
O=C(O)CNC(=O)c1ncc(C#CCOc2ccc(C(=O)N3CCCC3)cc2)cc1O [Example 54, 2-(3-Hydroxy-5-(3-(4-(pyrrolidin-1-carbonyl)phenoxy)propyn-1-yl))picolinamido acetic acid] | – | Yes | Yes | –
O=C(O)CNC(=O)c1nc(Cl)c(C#CCOc2ccc(C(=O)N3CC3)cc2)cc1O [Example 55] | – | Yes | Yes | –
O=C(O)CNC(=O)c1ncc(C#CCOc2ccc3ccccc3c2)cc1O [Example 58, 2-(3-Hydroxy-5-(3-(naphthalen-2-oxy)propyn-1-yl))picolinamido acetic acid] | – | Yes | Yes | –
O=C(O)CNC(=O)c1ncc(C#CCOc2cccc(Cl)c2Cl)cc1O [Example 61, 2-(3-Hydroxy-5-(3-(2,3-dichlorophenyl)oxypropyn-1-yl))picolinamido acetic acid] | – | Yes | Yes | –
O=C(O)CNC(=O)c1ncc(C#CCOc2cc(Cl)cc(Cl)c2)cc1O [Example 62, 2-(3-Hydroxy-5-(3-(3,5-dichlorophenyl)oxypropyn-1-yl))picolinamido acetic acid] | – | Yes | Yes | –
Cc1nc(C(=O)NCC(=O)O)c(O)cc1C#CCOc1ccc(C2CC2)cc1 [Example 63, 2-(3-Hydroxy-5-(3-p-cyclopropylphenoxypropyn-1-yl)-6-methyl)picolinamido acetic acid] | – | – | Yes | –
CCc1ccc(NCC#Cc2cnc(C(=O)NCC(=O)O)c(O)c2)cc1 [Example 66, 2-(3-Hydroxy-5-(3-p-ethylanilinopropyn-1-yl))picolinamido acetic acid] | – | Yes | Yes | –

From patent publication US10889546B2, “Alkynyl pyridine prolyl hydroxylase inhibitor, and preparation method and medical use thereof” (Jiangsu Hengrui Medicine Co., Ltd., priority 2015, dated 2021)
